Patent US10047087B2, “Substituted pyrazolo[1,5-A] pyridine as tropomyosin receptor kinase (TrK) inhibitors” (Dr. Reddy's Laboratories Ltd., priority 2011, dated 2018)
Like-named read-outs stand apart in the source and are kept apart here.

Tests used:
TrkA kinase = target: T1, TrkA kinase (Homo sapiens, UniProt P04629); test: In vitro TrkA inhibitory activity using TR-FRET assay; type: biochemical; conditions: 5 ng TrkA, 500 μM ATP
T1 construct: purchased Upstate, USA
Method in brief: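 Kinase (5 ng) was preincubated with compound for 30 min at 20-35° C before adding 40 nM ULight poly GT and 500 μM ATP; stopped with EDTA after 30 min. Eu-anti-phosphotyrosine antibody (0.5 nM) was read at 615/665 nm with 1% DMSO final. Compounds showing >25% inhibition at 1 μM went to sigmoidal dose-response IC50 fitting.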

[1] = Metabolic stability using Human Liver Microsomes (HLM); type: in vitro ADME; conditions: pooled human liver microsomes, compound 1 μM, 0.3 mg/ml microsomal protein, 1 mM NADPH
Description: Stability Protocol: Metabolic Stability Using Rat Liver Microsomes (RLM) and Human Liver Microsomes (HLM).
This assay was performed using pooled male rat liver microsomes (In-house prepared as per SOP), Pooled Human liver microsomes (XENOTECH; Batch No— H0630-1110189)). The 100 μl reaction contains the compounds at 1 μM, 0.3 mg/ml microsomal protein and both the co-factors (1 mM NADPH) in buffer and the mixture was incubated at different time points (0, 15, 30, 45, 60, & 90 minutes). The reaction was stopped by the addition of equal volume of acetonitrile containing internal standard (Telmesartin). The precipitated protein was removed by centrifugation and the supernatant were analyzed LC/MS-MS method. The percent parent compound remaining was quantified by analysis using following formula (% parent compound remaining=(peak area at Time x/peak area at T0)×100. The intrinsic clearance was calculated using the following formula. CLint,app: (0.693/in vitro t½)(incubation volume/mg of microsomal protein)(45 mg microsomal protein/gram of liver)(20^a g of liver/kg body weight) • a: 20 and 45 g of liver/kg of body weight were used for human and rat, respectively (Lu C et al., DMD, 2006). Bio-analysis: It was performed in Multiple Reaction Monitoring mode (negative mode) using Applied Biosystems API 4000 coupled to Agilent Technologies 1100 series HPLC on a reverse phase column (Zorbax Eclipse XDB C18, 50×4.6 mm, 5 μm). Celecoxib was used as internal standard both in in-vitro and in-vivo experiments. Mobile phase used 0.05% […] water and acetonitrile (10:90) with a flow rate of 0.6 ml/minute. The injection volume was kept as 10 μl.

[2] = read-out: TrkA inhibition in-vitro IC50

T1 sequence (P04629 33-796): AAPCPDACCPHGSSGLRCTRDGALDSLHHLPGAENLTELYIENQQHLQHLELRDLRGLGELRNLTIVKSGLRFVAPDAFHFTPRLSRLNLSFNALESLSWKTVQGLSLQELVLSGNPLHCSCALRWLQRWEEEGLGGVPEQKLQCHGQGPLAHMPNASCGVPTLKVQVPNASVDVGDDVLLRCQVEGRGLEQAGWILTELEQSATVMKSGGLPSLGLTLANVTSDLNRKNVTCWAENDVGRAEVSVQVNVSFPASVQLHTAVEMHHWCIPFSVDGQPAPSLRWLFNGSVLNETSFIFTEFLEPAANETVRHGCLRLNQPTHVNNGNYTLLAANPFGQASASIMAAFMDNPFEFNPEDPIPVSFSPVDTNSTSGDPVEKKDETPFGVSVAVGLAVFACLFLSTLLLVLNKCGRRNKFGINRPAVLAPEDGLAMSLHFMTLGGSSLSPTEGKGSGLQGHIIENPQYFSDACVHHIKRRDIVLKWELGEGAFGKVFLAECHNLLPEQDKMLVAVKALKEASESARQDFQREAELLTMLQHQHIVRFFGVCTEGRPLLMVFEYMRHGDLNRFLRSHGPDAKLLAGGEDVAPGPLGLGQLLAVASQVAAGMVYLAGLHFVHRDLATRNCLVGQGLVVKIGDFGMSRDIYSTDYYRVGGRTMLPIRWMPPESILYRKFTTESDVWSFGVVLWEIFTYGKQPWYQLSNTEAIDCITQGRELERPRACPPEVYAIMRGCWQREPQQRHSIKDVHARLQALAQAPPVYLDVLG

For `CC(C)S(=O)(=O)NC(=O)c1cnn2ccc(N3CCC[C@@H]3c3cc(F)ccc3F)c(F)c12` [Example 75, (R)-5-(2-(2,5-difluorophenyl)pyrrolidin-1-yl)-4-fluoro-N-(isopropylsulfonyl)pyrazolo[1,5-a]pyridine-3-carboxamide], the IC50 (TrkA kinase; both bounds given in nm, read-out: TrkA inhibitory activity in-vitro IC50) was 100 to 500 nM and the half-life at 1 μM [1] was greater than 1.33 h.
For `CN(C)S(=O)(=O)NC(=O)c1cnn2ccc(N3CCC[C@@H]3c3cc(F)ccc3F)cc12` [Example 76, (R)-5-(2-(2,5-difluorophenyl)pyrrolidin-1-yl)-N—(N, N-dimethylsulfamoyl)pyrazolo[1,5-a]pyridine-3-carboxamide], the IC50 (TrkA kinase; [2]) was no more than 50 nM and the half-life at 1 μM [1] was greater than 1.33 h.
Work on `CCN(C)S(=O)(=O)NC(=O)c1cnn2ccc(N3CCC[C@@H]3c3cc(F)ccc3F)cc12` [Example 77, (R)-5-(2-(2,5-difluorophenyl)pyrrolidin-1-yl)-N-(N-ethyl-N-methylsulfamoyl) pyrazolo[1,5-a]pyridine-3-carboxamide] yielded an IC50 (TrkA kinase; [2]) of no more than 50 nM and a half-life at 1 μM [1] greater than 1.33 h.
In the case of `CN(C)S(=O)(=O)NC(=O)c1cnn2ccc(N3C[C@@H](F)C[C@@H]3c3cc(F)ccc3F)cc12` [Example 78, 5-((2R,4S)-2-(2,5-difluorophenyl)-4-fluoropyrrolidin-1-yl)-N-(N,N-dimethylsulfamoyl) pyrazolo[1,5-a]pyridine-3-carboxamide], the IC50 (TrkA kinase; [2]) is reported as no more than 50 nM and the half-life at 1 μM [1] is reported as greater than 1.33 h.
For `CCN(C)S(=O)(=O)NC(=O)c1cnn2ccc(N3C[C@@H](F)C[C@@H]3c3cc(F)ccc3F)cc12` [Example 79, 5-((2R,4S)-2-(2,5-difluorophenyl)-4-fluoropyrrolidin-1-yl)-N-(N-ethyl-N-methylsulfamoyl) pyrazolo[1,5-a]pyridine-3-carboxamide], the IC50 (TrkA kinase; [2]) was no more than 50 nM and the half-life at 1 μM [1] was greater than 1.33 h.
With `CCN(C)S(=O)(=O)NC(=O)c1cnn2ccc(N3CCC[C@@H]3c3cc(F)ccc3OC)cc12` [Example 91, (R)-N-(N-ethyl-N-methylsulfamoyl)-5-(2-(5-fluoro-2-methoxyphenyl)pyrrolidin-1-yl)pyrazolo[1,5-a]pyridine-3-carboxamide] the IC50 (TrkA kinase; [2]) was no more than 50 nM and the half-life at 1 μM [1] was greater than 1.33 h.
